# “And” between values parts separate entries of the source, which are not always exact repeats. Identical values can stand only once.
# Legend:
# Format in all cases: in vivo, Sprague-Dawley rats
# [1] = test system: O-GlcNAc levels in cardiac tissue; assay: Elevation of rat cardiac O-GlcNAc levels (IV); conditions: rats, IV 50 mg/kg, 0 to 20 h, Western blot
# Procedure: The effect of intravenous (IV) administration of (3aR,5R,6S,7R,7aR)-2-(ethylamino)-5-(hydroxymethyl)-5,6,7,7a-tetrahydro-3aH-pyrano[3,2-d]thiazole-6,7-diol (Compound 25, hereinafter referred to as NAG-AE) on O-GlcNAc levels in cardiac tissue in Sprague-Dawley rats was measured. Animals were obtained from Charles-River as 5-week old healthy male Sprague-Dawley rats. Animals were given one week to acclimatize and at six weeks of age the appropriate treatment was initiated. Nine animals were given intravenous tail vein injections of 50 mg/kg NAG-AE; following injection, one animal was sacrificed at each of the following time points: 0, 1, 2, 4, 7, 10, 13, 16, and 20 h. In addition, one animal was given an injection of vehicle (PBS—pH 7.4) and sacrificed two hours later for use as a control. Tissues were removed from sacrificed animals as quickly as possible to minimize post-mortem delay. The hearts from each animal were immediately frozen in liquid nitrogen and stored at −80° C. until further use. Homogenization of the cardiac tissue was carried out by manual grinding followed by homogenization in cell lysis buffer (50 mM Tris, pH 8.0, 1 mM PMSF, 0.1% NP-40, 1 mM NAG-Bt) using a tissue homogenizer (IKA) at 4° C. Insoluble cell debris was removed by centrifugation at 17,900×g for 20 minutes at 4° C. and the resulting supernatant was stored at −20° C. until use. […]
# [2] = test system: tau phosphorylation levels in brain tissue; assay: Decrease of rat brain tau phosphorylation levels (NAG-Bt); conditions: rats, 100 mg/kg/day in food for five days then 50 mg/kg IV, Western blot
# Procedure: The effect of oral administration of NAG-Bt on tau phosphorylation levels in brain tissue in Sprague-Dawley rats was measured. All animals were obtained from Charles-River as 5-week old healthy male Sprague-Dawley rats. Animals were given one week to acclimatize and at six weeks of age the appropriate treatment was initiated. Four animals were fed food containing 100 mg/kg/day of NAG-Bt for five days. Four additional animals fed with food containing no inhibitor were used as controls. At the end of five days, the animals were fasted for 11 hours, then the four animals that received NAG-Bt in food were each given an intravenous tail vein injection of 50 mg/kg NAG-Bt. All animals were fasted for a further 5 hours, then they were sacrificed and brains were removed, stored, and processed as described in Example 29.
# Western blotting of the samples thus obtained was carried out using the α-O-GlcNAc antibody (CTD110.6; Covance) and a-Actin antibody as described previously.^106 For Tau blotting, pS199, pS214, pS217, pS262, pS396, and pS422 (Biosource), Tau-5 (Lab Vision; a non-PTM dependent tau antibody), Tau-1 (Chemicon; selective for nonphosphorylated Ser195, Ser198, Ser199, and Ser202), and pS404 (Sigma) antibodies were used according to the manufacturer's protocols. Equal amounts of homogenized brain tissue from an animal treated with and without NAG-Bt were separated by SDS-PAGE followed by probing with each of the primary antibodies and an appropriate secondary antibody (either an anti-mouse or anti-rabbit IgG-HRP conjugate, as appropriate). The resulting Western blots are shown in FIGS. 2A-I, and reveal decreases of brain tau phosphorylation at multiple sites following treatment with NAG-Bt; lanes labeled “+” indicate samples from animals receiving NAG-Bt, while lanes labeled “-” indicate samples from animals receiving vehicle alone.
# [3] = Eight-month repeat dose toxicology study in rats: general observations and organ weights
# Procedure: (§1) The toxicological effects of repeated oral administration of (3aR,5R,6S,7R,7aR)-5-(hydroxymethyl)-2-propyl-5,6,7,7a-tetrahydro-3aH-pyrano[3,2-d]thiazole-6,7-diol (NAG-Bt) to Sprague-Dawley rats over eight months was measured. All animals were obtained from Charles-River as 5-week old healthy male Sprague-Dawley rats. Animals were given one week to acclimatize and at six weeks of age the appropriate treatment was initiated. Eight animals were fed food containing 100 mg/kg/day of NAG-Bt for eight months. Eight additional animals fed with food containing no inhibitor were used as controls. […] After four months of dosing, blood and urine samples were collected from four rats in each group.
# At the end of eight months, all animals were sacrificed and their organs removed and weighed.
# [4] = Eight-month repeat dose toxicology study in rats: hematology (CBC) and serum chemistry
# Procedure: as §1
# [5] = Eight-month repeat dose toxicology study in rats: urinalysis
# Procedure: as §1
# [6] = rat, in vivo, po, 100 mg/kg/day
smiles,measurement,setting,value
"CCNC1=N[C@@H]2[C@@H](O)[C@H](O)[C@@H](CO)O[C@@H]2S1 [NAG-AE, (3aR,5R,6S,7R,7aR)-2-(ethylamino)-5-(hydroxymethyl)-5,6,7,7a-tetrahydro-3aH-pyrano[3,2-d]thiazole-6,7-diol]",O-GlcNAc levels in cardiac tissue,[1],time-dependent elevation
"CCCC1=N[C@@H]2[C@@H](O)[C@H](O)[C@@H](CO)O[C@@H]2S1 [NAG-Bt, (3aR,5R,6S,7R,7aR)-5-(hydroxymethyl)-2-propyl-5,6,7,7a-tetrahydro-3aH-pyrano[3,2-d]thiazole-6,7-diol]",brain tau phosphorylation at Ser214 and Ser404,[2],increases phosphorylation
same,brain tau phosphorylation at Thr231 and Ser396,[2],essentially blocks phosphorylation
same,"brain tau phosphorylation at the Tau-1 epitope (Ser195, Ser198, Ser199, Ser202), Ser199, Ser262, Ser396, Ser422, and Thr231",[2],decreases in phosphorylation
same,"body weight, food consumption, water consumption, and blood glucose levels",[3]; [6],no significant differences
same,gross pathological abnormalities or behavioural differences,[3]; [6],No gross pathological abnormalities or behavioural differences
same,toxicological consequences of long-term dosing,"[3]; rats, oral 100 mg/kg/day, eight months",no serious toxicological consequences
same,ALT,[4]; [6],109.3 iu/l
same,AST,[4]; [6],202.3 iu/l
same,Albumin,[4]; [6],47.8 g/L
same,Albumin/Globulin,[4]; [6],1.6
same,Alkaline phsphatase,[4]; [6],168.3 iu/l
same,Anion Gap,[4]; [6],29.8 mM
same,Bilirubin total,[4]; [6],0.0 µM
same,Blood Urea Nitrogen,[4]; [6],8.9 mM
same,Calcium,[4]; [6],2.7 mM
same,Carbon Dioxide,[4]; [6],17.5 mM
same,Chloride,[4]; [6],104.5 mM
same,Cholesterol,[4]; [6],2.9 mM
same,Creatine Phosphokinase,[4]; [6],1324.5 iu/l
same,Creatinine,[4]; [6],29.0 µM
same,Gamma gt,[4]; [6],17.5 iu/l
same,Globulin,[4]; [6],30.3 g/L
same,Glucose,[4]; [6],2.0 mM
same,Hematocrit,[4]; [6],0.5 l/l
same,Hemoglobin,[4]; [6],169.5 g/L
same,Lymphs %,[4]; [6],82.3%
same,Mean Corp Hemoglobin,[4]; [6],16.9 pg
same,Mean Corp Vol.,[4]; [6],53.3 fL
same,Mean Platelet Vol,[4]; [6],9.3 fL
same,Monocytes %,[4]; [6],4.3%
same,Nonesterified Fatty Acids,[4]; [6],1.8 mM
same,Osmolality,[4]; [6],292.9 mmol/kg
same,Phosphorus,[4]; [6],2.2 mM
same,Platelet cnt,[4]; [6],561.8 10e9/L
same,Polys %,[4]; [6],10.8%
same,Potassium,[4]; [6],5.9 mM
same,RDW,[4]; [6],17.4
same,Red cell cnt,[4]; [6],10.1 10^12/L
same,Sodium,[4]; [6],145.8 mM
same,Sorbitol Dehydrogenase,[4]; [6],22.3 iU/L
same,Total Protein,[4]; [6],78.0 g/L
same,Triglyceride,[4]; [6],2.7 mM
same,White cell cnt,[4]; [6],3.8 1e9/l
same,"hematology (CBC), serum chemistry and urinalysis: differences between groups",[4]; [6],no statistically significant differences
same,"changes in ALT, AST, bilirubin or sorbitol dehydrogenase (liver toxicity)","[4]; rats, oral 100 mg/kg/day, four months",no changes
same,Urine Bilirubin,[5]; [6],neg
same,Urine Color,[5]; [6],Yellow
same,Urine Crystals,[5]; [6],PO4
same,Urine Crystals Amount,[5]; [6],Many
same,Urine Epith,[5]; [6],neg
same,Urine Glucose,[5]; [6],neg
same,Urine Gran Cast,[5]; [6],neg
same,Urine Hyal cast,[5]; [6],neg
same,Urine RBC Cast,[5]; [6],neg
same,Urine Urobil,[5]; [6],Norm
same,Urine Bacteria,"[5]; rats dosed orally for 4 months at 100 mg/kg/day, individual treated rats",Mod- and neg (2×)

# Reference: patent publication US8962664B2, “Selective glycosidase inhibitors and uses thereof” (Simon Fraser University, priority 2006, dated 2015)
